From patent US9216163B2, “Method of inhibiting angiogenesis” (KYORIN PHARMACEUTICAL CO., LTD, priority 2013, dated 2015)

Experiments:
HUVEC [1] = test: VEGF-induced tube formation of HUVEC in collagen; format: cell-based, human; conditions: 100 μM pretreatment 15 minutes, VEGF 30 ng/mL, after 24 hours
Method: An effect of L-carbocisteine against tube formation promoted by VEGF was evaluated in vitro using HUVEC. A collagen Type 1-C (available from Nitta Gelatin Inc.) lower layer was formed on a 12-well plate, HUVEC were inoculated on the lower layer, and a collagen upper layer was then formed. The HUVEC were pretreated with L-carbocisteine (100 μM) for 15 minutes, and stimulated by VEGF (30 ng/mL). The overall length of the lumen after 24 hours was measured (n=6).

Akt = test: VEGF-induced phosphorylation of Akt in HUVEC (Western blot); format: cell-based, human; conditions: 100 μM pretreatment 15 minutes, VEGF 30 ng/mL for 5 or 15 minutes
Method: (§1) An effect of L-carbocisteine against phosphorylation of Akt, Erk1/2, c-Jun N-terminal kinase (JNK), and p38 MAP kinase accelerated by VEGF stimulation was evaluated using HUVEC. HUVEC were inoculated, and cultured in an EBM-2 medium containing 0.1% FBS overnight under starvation condition. The HUVEC were pretreated with L-carbocisteine (100 μM) for 15 minutes, and stimulated by VEGF (30 ng/mL) for 5 or 15 minutes. Phosphorylation accelerated by VEGF stimulation was evaluated using phosphor-specific antibodies against various kinases by a Western blot method. The level of kinase protein expression was investigated using each antibody after detection of phosphorylation.

Erk1/2 = test: VEGF-induced phosphorylation of Erk1/2 in HUVEC (Western blot); format: cell-based, human; conditions: 100 μM pretreatment 15 minutes, VEGF 30 ng/mL for 5 or 15 minutes
Method: as §1

p38 MAP kinase = test: VEGF-induced phosphorylation of p38 MAP kinase in HUVEC (Western blot); format: cell-based, human; conditions: 100 μM pretreatment 15 minutes, VEGF 30 ng/mL for 5 or 15 minutes
Method: as §1

[2] = tested on: VEGF-induced angiogenesis formed in Matrigel; test: VEGF-induced angiogenesis in Matrigel, in vivo mouse model (Evans blue); conditions: male C57BL/6J mouse, 5 μg/g B.W. intraperitoneal twice daily for 14 days
Method: An effect of L-carbocisteine against angiogenesis promoted by VEGF was evaluated in an in vivo mouse model. A male C57BL/6J mouse (6 weeks) was anesthetized with pentobarbital. Subsequently, 500 μL of BD™ matrix containing 30 ng/mL VEGF was subcutaneously injected into the side of the mouse using a 27-G needle. L-carbocisteine (5 μg per g of body weight of the mouse) or physiologic saline (the same volume) was intraperitoneally administered twice a day, morning and evening, for 14 days. After completion of the administration for 14 days, Evans blue was administered to the mouse via the orbital vein plexus. The mouse was sufficiently perfused with EDTA, and anesthetized with pentobarbital. The matrigel was taken out from the body of the mouse. The weight of taken matrigel was measured, and the matrigel was immersed in a formamide solution and allowed to stand at 37° C. for 48 hours. Following elution of Evans blue in the formamide solution, the weight of eluted Evans blue per unit weight of the matrigel was measured using an absorbance of 620 nm (n=8).

HUVEC [3] = test: VEGF-induced cell growth of HUVEC (Cell Counting Kit-8); format: cell-based, human; conditions: VEGF 30 ng/mL
Method: An effect of L-carbocisteine against cell growth promotion by VEGF was evaluated in vitro using HUVEC. HUVEC were inoculated at 2,500 cells/well in a 96-well microplate, and cultured for 24 hours. Subsequently, the HUVEC were cultured in a medium without VEGF and bFGF overnight under a starvation condition. The HUVEC were pretreated with L-carbocisteine (10, 50, 100, and 200 μM) for 15 minutes, and then stimulated by VEGF (30 ng/mL). The number of living cells after 48 hours was determined by Cell Counting Kit-8 (manufactured by DOJINDO LABORATORIES) (n=6). 2) Results

HUVEC [4] = test: VEGF-induced cell migration of HUVEC; format: cell-based, human; conditions: 100 μM pretreatment 15 minutes, VEGF 30 ng/mL, after 12 hours
Method: An effect of L-carbocisteine against cell migration promoted by VEGF was evaluated in vitro using HUVEC. HUVEC were inoculated in a plate, and cultured until confluent. Subsequently, the HUVEC were cultured in a medium without VEGF and bFGF overnight under starvation condition. The HUVEC were pretreated with L-carbocisteine (100 μM) for 15 minutes. The cells (HUVEC) on the plate were peeled at certain intervals. The cells remaining on the plate were stimulated by VEGF (30 ng/mL). After 12 hours, the distance of cell migration was measured (n=4).

[5] = tested on: c-Jun N-terminal kinase (JNK); test: VEGF-induced phosphorylation of JNK in HUVEC (Western blot); format: cell-based, human; conditions: 100 μM pretreatment 15 minutes, VEGF 30 ng/mL for 5 or 15 minutes
Method: as §1

## N[C@@H](CSCC(=O)O)C(=O)O [L-carbocisteine, S-(carboxymethyl)-L-cysteine]
HUVEC [1]
  tube formation promoted by VEGF (overall length of the lumen): significantly suppressed
Akt
  accelerated phosphorylation of Akt: only accelerated phosphorylation of Erk1/2 was specifically suppressed
Erk1/2
  accelerated phosphorylation of Erk1/2: specifically suppressed
p38 MAP kinase
  accelerated phosphorylation of p38 MAP kinase: only accelerated phosphorylation of Erk1/2 was specifically suppressed
[2]
  vascular density in the matrigel: markedly decreased
HUVEC [3]; 10, 50, 100 and 200 μM, 48 hours
  growth suppressive effect, concentration dependence: concentration-dependent
HUVEC [3]; pretreatment with 100 μM or more for 15 minutes, living cells after 48 hours
  endothelial cell growth promoted by VEGF: significantly suppressed
HUVEC [4]
  migration promoted by VEGF (distance of cell migration): significantly suppressed
[5]
  accelerated phosphorylation of JNK: only accelerated phosphorylation of Erk1/2 was specifically suppressed
